How the values were obtained:
clostridia = details: cited from earlier work
[1] = test system: person with chronic diarrhea and autism; assay type: in vivo, human
Experimental: Diarrhea began after three 10 day courses of broad spectrum antimicrobials prescribed over a six week period for “chronic otitis media.” There was no blood or pus in the stool nor associated constitutional symptoms. There was profound behavioral and developmental deterioration, along with emergence of severe autistic features.
A 12 week therapeutic trial of oral vancomycin (125 mg QID) was begun with expanded observations by a pediatric neuropsychologist pre- and post-treatment. At baseline, the child was not on a special diet nor was […] taking any vitamin supplements. Three days after initiation of the vancomycin therapy, a hyperactivity pattern emerged which lasted for four days. […] became affectionate and relatively calm. […] promptly achieved toilet training and increased vocabulary. Follow-up behavioral observations after eight weeks of therapy noted an increase in on-task performance, compliance with parental requests, awareness of environmental surroundings, and persistence when engaging in positive activities. […] The child's educational therapies remained unchanged for both six months before and during the vancomycin trial. […] Though still improved over baseline, […] eventually lost most of the initial gains.

[2] = test system: children with regressive onset autism; details: in vivo
Bacteroides = details: cited from earlier work
[3] = in vivo, po; cited from earlier work
tetanus toxin = tetanus toxin (Clostridium tetani, UniProt P04958); details: cited from earlier work
Chain of tetanus toxin (P04958 whole entry, looked up): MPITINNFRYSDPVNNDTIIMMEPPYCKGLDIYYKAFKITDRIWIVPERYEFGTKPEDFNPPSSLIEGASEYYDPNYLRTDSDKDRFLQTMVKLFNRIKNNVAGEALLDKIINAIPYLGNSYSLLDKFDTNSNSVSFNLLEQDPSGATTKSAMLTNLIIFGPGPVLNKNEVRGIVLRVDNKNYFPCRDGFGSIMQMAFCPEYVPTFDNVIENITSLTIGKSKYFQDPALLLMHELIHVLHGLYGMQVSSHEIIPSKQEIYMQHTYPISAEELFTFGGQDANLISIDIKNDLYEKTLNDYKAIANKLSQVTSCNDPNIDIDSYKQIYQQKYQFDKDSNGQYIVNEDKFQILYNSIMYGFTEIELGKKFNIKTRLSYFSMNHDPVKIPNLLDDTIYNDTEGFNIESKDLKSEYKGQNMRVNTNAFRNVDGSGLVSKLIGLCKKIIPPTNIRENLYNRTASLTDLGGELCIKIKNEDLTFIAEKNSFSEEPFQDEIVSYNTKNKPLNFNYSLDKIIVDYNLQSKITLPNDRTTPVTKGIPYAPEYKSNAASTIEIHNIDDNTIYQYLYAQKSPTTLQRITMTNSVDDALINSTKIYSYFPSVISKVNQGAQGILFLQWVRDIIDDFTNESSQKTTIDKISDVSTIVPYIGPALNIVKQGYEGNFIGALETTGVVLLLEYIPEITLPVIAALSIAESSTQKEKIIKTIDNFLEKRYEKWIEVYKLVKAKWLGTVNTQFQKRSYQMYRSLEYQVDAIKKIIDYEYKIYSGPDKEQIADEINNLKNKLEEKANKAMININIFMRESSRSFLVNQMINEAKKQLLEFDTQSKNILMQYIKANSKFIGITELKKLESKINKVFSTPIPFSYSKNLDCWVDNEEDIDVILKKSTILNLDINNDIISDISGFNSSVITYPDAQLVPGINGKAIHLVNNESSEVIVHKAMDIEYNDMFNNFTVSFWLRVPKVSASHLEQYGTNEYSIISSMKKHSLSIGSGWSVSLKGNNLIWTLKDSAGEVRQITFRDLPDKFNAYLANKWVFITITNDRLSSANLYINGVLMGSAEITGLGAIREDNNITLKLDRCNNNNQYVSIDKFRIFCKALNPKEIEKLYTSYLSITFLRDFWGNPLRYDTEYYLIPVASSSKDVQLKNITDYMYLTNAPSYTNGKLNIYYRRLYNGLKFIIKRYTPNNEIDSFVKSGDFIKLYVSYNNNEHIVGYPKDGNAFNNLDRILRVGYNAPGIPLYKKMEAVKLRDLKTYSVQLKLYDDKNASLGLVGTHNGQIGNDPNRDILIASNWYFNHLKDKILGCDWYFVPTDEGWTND

Row | SMILES | Activity against clostridia (clostridia) | Repetitive and self-stimulatory behaviors ([1]; after eight weeks of therapy) | Course shortly after discontinuation ([1]; after vancomycin discontinuation) | Clinical response ([1]; oral vancomycin 125 mg QID, 12 weeks) | Analog rating scale, improvement in behavior: Wilcoxon Signed Ranks Z [2] | Analog rating scale, improvement in behavior: p [2] | Analog rating scale, improvement in communication: Wilcoxon Signed Ranks Z [2] | Analog rating scale, improvement in communication: p [2] | Analog ratings at long-term follow-up [2] | Basic blood, stool and urine tests [2] | Brief (1-4 days) period of hyperactivity: children affected [2] | Day of marked lethargy: subjects affected [2] | Blinded assessment of coded, paired videotapes: possible deterioration ([2]; po) | Activity against Bacteroides (Bacteroides) | Concentration in the intestines [3] | Effect on tetanus toxin in vitro (tetanus toxin)
1 | CC1(C)S[C@@H]2[C@H](NC(=O)[C@H](N)c3ccccc3)C(=O)N2[C@H]1C(=O)O [ampicillin] | active |  |  |  |  |  |  |  |  |  |  |  |  |  |  | 
2 | CN[C@H](CC(C)C)C(=O)N[C@H]1C(=O)N[C@@H](CC(N)=O)C(=O)N[C@H]2C(=O)N[C@H]3C(=O)N[C@H](C(=O)N[C@H](C(=O)O)c4cc(O)cc(O)c4-c4cc3ccc4O)[C@H](O)c3ccc(c(Cl)c3)Oc3cc2cc(c3O[C@@H]2O[C@H](CO)[C@@H](O)[C@H](O)[C@H]2O[C@H]2C[C@](C)(N)[C@H](O)[C@H](C)O2)Oc2ccc(cc2Cl)[C@H]1O [vancomycin] | effective | significant reduction | behavioral deterioration | rapid and dramatic clinical improvement | −2.9 | 0.003 | 2.9 | 0.003 | returned towards baseline | unremarkable | six | One | one | effective | high concentration | 
3 | C[C@H](CS)C(=O)N1CCC[C@H]1C(=O)O [Captopril] |  |  |  |  |  |  |  |  |  |  |  |  |  |  |  | inactivates
